Data from patent publication US8507431B2, “Methods for accelerating wound healing by administration of a preadipocyte modulator or an adipocyte modulator” (HealOr Ltd., priority 2003, dated 2013).
Entries after “also recorded” stand apart in the source; their conditions may differ.

Columns and labels:
primary keratinocytes = assay: Keratinocytes migration (wound scratch) assay in vitro; assay type: cell-based, murine; conditions: for keratinocyte migration in scratch assay vs control and insulin: treated daily, 24 and 48 hrs
Method: Primary keratinocytes were isolated from newborn skin as described in reference 18. Keratinocytes were cultured in Eagle's Minimal Essential Medium (EMEM) containing 8% Chelex (Chelex-100, BioRad) treated fetal bovine serum. To maintain a proliferative basal cell phenotype, the final Ca^2+ concentration was adjusted to 0.05 mM. Experiments were performed five to seven days after plating.
Primary mouse keratinocytes were untreated or treated with, PPARγ antagonist GW9662 (μM) or PPARγ agonist troglitazone (μM). Wound Scratch Assay was performed 24 hours following treatment, and representative fields were photographed immediately after the wounding (Day 0) and 48 hours later (Day 2). The average of wound closure represented as percentage in comparison to the initial width of the wound scratch (% of wound closure).
The effect of inhibiting or enhancing the activity of peroxisome proliferators-activated receptor gamma (PPARγ) on keratinocytes migration was evaluated utilizing the in vitro migration assay. Thus, primary keratinocytes were isolated and plated on 5 ml non-coated dishes until confluence in low Ca^2+ medium, and an artificial crossover scratch was formed in each dish with a 200 μm tip. Cells were either non-treated (control) or treated daily with PPARγ modulators.
In order to test the effect of different adipokines on keratinocyte migration to close the wound gap, an in vitro scratch assay was used. Thus, primary keratinocytes were isolated and plated on 5 ml non-coated dishes until confluence in low Ca^2+ medium, and an artificial crossover scratch was formed in each dish with a 200 μm tip. Cells were either non-treated (control) or treated daily with insulin (0.1 unit/ml), hIL-4 (2 ng/ml), hIL-6 (0.2 ng/ml), leptin (4 μg/ml) or apelin (0.02 μg/ml or 0.2 μg/ml).
(§1) Primary keratinocytes/fibroblasts were isolated and plated on 5 ml non-coated dishes until confluence in low Ca^2+ medium, and an artificial cross-over scratch was formed in each dish with a 200 μm tip. Then, cells were either non-treated or treated with visfatin (0.1 μg/ml or 0.0.1 μg/ml) or insulin (0.1 unit/ml) for up to 48 hrs.

[1] = system: Full thickness wounds on the back of C57BL mice; assay: Wound healing assay, full thickness incision wounds in mice; assay type: in vivo; conditions: for epidermal migration vs PBS control (K14 staining) / wound contraction vs PBS control / dermal contraction (both dermal wound sides in a single field, H&E): topical daily for 6 days; for epidermal migration vs PBS control (K14 staining) / wound contraction vs PBS control / dermal contraction (both dermal wound sides in a single field, H&E) / wound area compared with the buffer control (morphological analysis): GW9662 2 μM, adipsin 1 μM; for wound contraction vs PBS control / wound area compared with the buffer control (morphological analysis): troglitazone 100 μM; for dermal contraction (both dermal wound sides in a single field, H&E): control negative; for wound area compared with the buffer control (morphological analysis): topical daily for six days, insulin 10 nM, troglitazone 100 μM + insulin 10 nM
Method: […] […] Wound biopsies were sampled, processed and analyzed morphologically and/or histochemically and/or immunohistochemically for various wound healing parameters, i.e., wound contraction, adipocytes migration and differentiation, epidermal migration, and epidermal closure.
The wound area was measured and compared to untreated control wounds; and wound contraction was calculated as the percent reduction of the wound area.
Wound biopsies were fixed in 4% paraformaldehyde then dehydrated in increasing concentrations of ethanol (50-100%). The dehydrated preparations were immersed first in xylene, then paraffin and xylene 1:1 solution, then in pure melted paraffin (60° C.). The paraffin blocks were then sectioned by a microtome and the sections were mounted on Super Frost^+™ slides.
Paraffin embedded wound-section slides were incubated at 60° C. for 60 minutes and were de-parafinated by washing the slides twice with toluene (100%) for 10 minutes, then rehydrated in decreasing concentration of ethanol (100-50%) for 5 minutes each. The slides were stained with hematoxylin (ready to use solution) for 10 minutes, rinsed with water, stained with eosin (0.5% in DDW) for 5 minutes, and then washed with 70% ethanol by 2 quick immersions. Thereafter, the slides were dehydrated by washing once with 95% ethanol for 2 minutes, twice with 100% ethanol for 5 minutes, and twice with xylene (100%) for 10 minutes, then mounted with entellan (MERCK Darmstadt Germany).
Paraffin embedded wound-section slides were de-parafinated as described for H&E staining above and incubated in blocking solution (5% BSA and 0.5% Tween 20™ in PBS) for 1 hour. The slides were then incubated with either anti-keratin 1 (1:500) or anti-keratin 14 (1:1000) antibody in blocking solution (5% BSA and 0.5% Tween 20™ in PBS) at 4° C. overnight. Thereafter, the slides were washed five times with washing buffer (5% Tween 20™ in PBS for K14 and 0.5% Tween 20™ in PBS for K1) followed by incubation with biotinilated goat anti-rabbit antibody (ZYMED Laboratories Inc.) suspended (1:200) in blocking solution (5% BSA and 0.5% Tween 20™ in PBS) for 1 hour at room temperature. The slides were then washed three times with washing buffer (5% Tween 20™ in PBS) followed by incubation with an enzyme streptavidin conjugate in blocking solution (1:300) for 1 hour at room temperature. Thereafter, the slides were washed twice with washing buffer (5% Tween 20™ in PBS) for 5 minutes, once with PBS for 5 minutes and once with TRIS buffer (0.05 M in PBS) for 5 minutes, followed by incubation in DAB reagent for color development. The reaction was terminated by immersing the slides in double distilled water followed by counterstaining with eosin (ICN, 0.5% in DDW). The slides were then washed with 70% ethanol by 2 quick immersions; dehydrated by washing once again with 95% ethanol for 2 minutes, twice with 100% ethanol for 5 minutes, and twice with xylene (100%) for 10 minutes; and mounted with entellan (MERCK Darmstadt Germany).
The effect of inhibiting or enhancing the activity of PPARγ using PPARγ antogonist and agonist, respectively, on wound healing was also evaluated in vivo. […]
The effect of adipsin (complementing Factor D, which is secreted from adipocytes) on wound healing was evaluated in vivo. […] The mice were sacrificed 6 days after wounding and the wounds were then analyzed. […] In addition, adipsin increased epidermal closure from about 15% to about 30%, and increased keratinocytes migration from about 30% to about 65%, as compared with the buffer control (FIG. 6).
Full thickness 20 mm incision wounds were performed on 8-10 week old C57BL mice, 6 mice per group. The wounds were treated daily for 7 days with PBS (control), adiponectin (1 μg/ml) or visfatin (0.01 μg/ml). Skin biopsies were paraffin embedded and slide sections representing the widest area of the wound were prepared. Sections were then subjected to histochemical staining such as H&E and Masson Trichrome (collagen). […]

primary skin fibroblasts = assay: Fibroblasts scratch migration assay in vitro; assay type: cell-based; conditions: 24 hrs; hIL-8 5 ng/ml, hIL-1β 0.2 ng/ml, hIL-4 2 ng/ml, apelin 0.2 μg/ml, adiponectin 1 μg/ml
Method: Primary skin fibroblasts were isolated and plated on 5 ml non-coated dishes until confluence in low Ca^2+ medium, and an artificial crossover scratch was formed in each dish with a 200 μm tip. Cells were either non-treated (control) or treated with insulin (0.1 unit/ml), hIL-8 (5 ng/ml), hIL-1β (0.2 ng/ml), hIL-4 (2 ng/ml), apelin (0.2 μg/ml) or adiponectin (1 μg/ml); and collected after 24 hrs.
as §1

[2] = hIL-6 0.2 ng/ml, leptin 4 μg/ml, apelin 0.02 μg/ml
[3] = C57BL mice, insulin 1 μM topical daily for six days, untreated about 60%

O=C(Nc1ccccc1)c1cc([N+](=O)[O-])ccc1Cl [GW9662, 2-chloro-5-nitrobenzanilide, reference compound]
keratinocytes migration in vitro vs untreated control (primary keratinocytes; scratch with 200 μm tip, Day 2 (48 hours), GW9662 2 μM, troglitazone 100 μM): promoted keratinocytes migration
epidermal migration vs PBS control (K14 staining) [1]: promoted; also recorded: migrating toward covering the wound gap
wound contraction vs PBS control [1]: promoted wound contraction
dermal contraction (both dermal wound sides in a single field, H&E) [1]: positive dermal contraction
wound area compared with the buffer control (morphological analysis) [1]: substantially smaller

IL-1: adipokine hIL-1β
fibroblasts migration to close the wound gap vs non-treated and insulin (primary skin fibroblasts): promoted fibroblasts migration to completely close the wound gap

IL-6: adipokine hIL-6
keratinocyte migration in scratch assay vs control and insulin (primary keratinocytes; [2]): not as significantly

IL-8: adipokine hIL-8
fibroblasts migration to close the wound gap vs non-treated and insulin (primary skin fibroblasts): smaller yet significant effect

adipsin
keratinocytes migration in vitro (summary statement) (primary keratinocytes; no concentration given): substantially accelerated keratinocytes migration in vitro
epidermal closure, percent of wounds positive (K14) ([1]; adipsin 1 μM topical daily, buffer control about 15%): about 30%
keratinocytes migration, percent of wounds positive (K14) ([1]; adipsin 1 μM topical daily, buffer control about 30%): about 65%
epidermal migration vs PBS control (K14 staining) [1]: migrating toward covering the wound gap
wound contraction vs PBS control [1]: substantially promoted wound contraction
dermal contraction (both dermal wound sides in a single field, H&E) [1]: positive dermal contraction
wound area compared with the buffer control (morphological analysis) [1]: substantially smaller

apelin
fibroblasts migration to close the wound gap vs non-treated and insulin (primary skin fibroblasts): promoted fibroblasts migration to completely close the wound gap
keratinocyte migration in scratch assay vs control and insulin (primary keratinocytes; hIL-4 2 ng/ml, apelin 0.2 μg/ml): keratinocyte migration was highly significant
keratinocyte migration in scratch assay vs control and insulin (primary keratinocytes; [2]): not as significantly

insulin [reference compound]
migrating keratinocytes observed across the wound gap, percent of wounds (K14 staining) [1, 3]: about 90%
recruited adipocytes present, percent of wounds (H&E staining) [1, 3]: ~80%
wound area compared with the buffer control (morphological analysis) [1]: substantially smaller

leptin
keratinocyte migration in scratch assay vs control and insulin (primary keratinocytes; [2]): not as significantly
